Each structure is given as a SMILES string. Where two headings read alike, the source gives them in different places. Numbered stars: 1 amine (or outer) side, 2 acyl side, 3 side chain; on linkers, the order of the positions; unused ones are H or OH. Square brackets hold non-standard residues; d marks the D form. Peptide text beside a SMILES is read from it. * marks the point of attachment. Pro(4R-NH2) = N[C@H]1CN[C@H](C(=O)O)C1; X2 = O=C([C@H]1CCCN([*:1])C1)[*:2]; NMeR = CN[C@@H](CCCNC(=N)N)C(=O)O; X1 = CCCCCCCCN1CCC[C@H](C(=O)*)C1; dDap(Me2) = CN(C)C[C@@H](N)C(=O)O; Hyp = O=C(O)[C@@H]1C[C@@H](O)CN1; NMeF = CN[C@@H](Cc1ccccc1)C(=O)O; NMeL = CN[C@@H](CC(C)C)C(=O)O; Octanoyl = CCCCCCCC(=O)* A value given as a limit tells only on which side of the number the result lay.

We go through 9 compounds from patent US9982016B2, “NPR-B agonists” (priority 2009, dated 2018).

One assay deals with T1, NPR-B (Homo sapiens, UniProt P20594).
T1 construct: endogenously NPR-B expressing GTM-3 cells; endogenous in cells; host or cells: GTM-3 (human glaucoma trabecular meshwork cells)
T1 sequence (P20594 23-1047): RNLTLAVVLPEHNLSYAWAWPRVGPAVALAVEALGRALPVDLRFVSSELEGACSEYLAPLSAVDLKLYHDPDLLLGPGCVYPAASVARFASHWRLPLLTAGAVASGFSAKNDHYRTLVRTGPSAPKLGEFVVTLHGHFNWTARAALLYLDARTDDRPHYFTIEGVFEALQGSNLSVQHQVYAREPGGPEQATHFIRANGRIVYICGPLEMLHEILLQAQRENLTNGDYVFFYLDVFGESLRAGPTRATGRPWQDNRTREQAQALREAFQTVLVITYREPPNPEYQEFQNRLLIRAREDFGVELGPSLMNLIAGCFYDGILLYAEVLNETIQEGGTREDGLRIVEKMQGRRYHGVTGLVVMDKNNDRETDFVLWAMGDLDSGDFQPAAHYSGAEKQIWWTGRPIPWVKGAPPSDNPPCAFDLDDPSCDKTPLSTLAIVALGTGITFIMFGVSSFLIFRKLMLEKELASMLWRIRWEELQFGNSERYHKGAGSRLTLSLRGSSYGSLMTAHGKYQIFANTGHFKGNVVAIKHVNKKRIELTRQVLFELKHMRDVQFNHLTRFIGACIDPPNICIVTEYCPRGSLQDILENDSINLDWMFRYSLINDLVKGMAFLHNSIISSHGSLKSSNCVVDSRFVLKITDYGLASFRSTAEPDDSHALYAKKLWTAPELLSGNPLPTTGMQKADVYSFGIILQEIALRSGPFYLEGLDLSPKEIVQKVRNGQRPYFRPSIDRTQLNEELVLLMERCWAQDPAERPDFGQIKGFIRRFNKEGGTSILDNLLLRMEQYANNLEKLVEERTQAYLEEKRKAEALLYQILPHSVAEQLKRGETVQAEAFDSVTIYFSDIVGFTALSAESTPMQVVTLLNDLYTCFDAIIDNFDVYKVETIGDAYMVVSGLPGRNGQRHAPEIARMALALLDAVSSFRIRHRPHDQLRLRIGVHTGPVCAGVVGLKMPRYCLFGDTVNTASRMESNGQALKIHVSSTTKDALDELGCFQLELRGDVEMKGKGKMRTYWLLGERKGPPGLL
The experiment in a line: NPR-B induced production of cyclic GMP in human glaucoma trabecular meshwork cells (GTM-3). The class given is cell-based.

The subject of assay [1] is human colon adenocarcinoma cells. As to conditions: 1 mM, within 24 h; cited from earlier work.
Assay [2] concerns human renal carcinoma cells. As to conditions: 100 μM; cited from earlier work.
The subject of another assay is chondrocytes. As to conditions: low doses 10 to 100 pM, at the highest dose; cited from earlier work.
[3] abbreviates: NPR-B activation in GTM-3 cells, group set by EC50 and Emax (CNP = 100%), read-out: Activity (group).

In the case of `CCCCCCCC(=O)N1CCC[C@H](C(=O)N[C@@H](Cc2ccccc2)C(=O)N[C@H](CN(C)C)C(=O)N[C@@H](CC(C)C)C(=O)N2C[C@H](O)C[C@H]2C(=O)N(C)[C@@H](CC(C)C)C(=O)N[C@@H](CC(=O)O)C(=O)N2CCC[C@H]2C(=O)N[C@H](C(N)=O)[C@@H](C)CC)C1` [JAL-1580, Occ-Sni-Phe-dap(Me2)-Leu-Hyp-Nml-Asp-Pro-Ile-NH2] (Octanoyl-[X2]F[dDap(Me2)]L[Hyp][NMeL]DPI-NH2), the EC50 on NPR-B (setting [3]) is under 1 µM. Still for that read-out and setting: under `CCCCCCCC(=O)N[C@H](C)C(=O)N[C@@H](Cc1ccccc1)C(=O)N[C@H](CC(C)C)C(=O)N[C@@H](CC(C)C)C(=O)N1C[C@H](O)C[C@H]1C(=O)N(C)[C@@H](CC(C)C)C(=O)N[C@@H](C(=O)N[C@@H](CCCNC(=N)N)C(=O)N[C@H](C(N)=O)[C@@H](C)CC)c1cccs1` [JAL-1558, Occ-ala-Phe-leu-Leu-Hyp-Nml-(BB727)-Arg-Ile-NH2] (HELM PEPTIDE1{[CCCCCCCC(=O)[*:2]].[dA].F.[dL].L.[Hyp].[meL].[O=C([C@H](N[*:1])c1cccs1)[*:2]].R.I.[am]}$$$$V2.0) stands under 1 µM. Regarding `CC[C@H](C)[C@@H]1NC(=O)[C@H](CCCNC(=N)N)NC(=O)[C@H](CC(=O)O)NC(=O)[C@H](CCSC)NC(=O)[C@H](CCCNC(=N)N)NC(=O)CNC(=O)CNC(=O)[C@H](Cc2ccccc2)NC(=O)[C@@H](NC(=O)[C@H](CO)NC(=O)[C@H](CO)NC(=O)[C@H](CCCNC(=N)N)NC(=O)[C@H](CCCNC(=N)N)NC(=O)[C@H](CC(C)C)NC(=O)[C@@H](N)CO)CSSC[C@@H](C(=O)N[C@@H](CC(N)=O)C(=O)N[C@@H](CO)C(=O)N[C@@H](Cc2ccccc2)C(=O)N[C@@H](CCCNC(=N)N)C(=O)N[C@@H](Cc2ccc(O)cc2)C(=O)O)NC(=O)CNC(=O)[C@H](CC(C)C)NC(=O)CNC(=O)[C@H](CO)NC(=O)[C@H](CCC(N)=O)NC(=O)[C@H](C)NC(=O)CNC1=O` [ANP, atrial natriuretic peptide], the “decrease in cell number” value in assay [1] was “up to 97%”. For `CC[C@H](C)[C@@H]1NC(=O)[C@H](CCCNC(=N)N)NC(=O)[C@H](CC(=O)O)NC(=O)[C@H](CCSC)NC(=O)[C@H](CCCNC(=N)N)NC(=O)CNC(=O)CNC(=O)[C@H](Cc2ccccc2)NC(=O)[C@H](Cc2c[nH]cn2)NC(=O)[C@@H](NC(=O)[C@@H](N)CCSC)CSSC[C@@H](C(=O)N[C@@H](Cc2ccc(O)cc2)C(=O)N[C@@H](CCCNC(=N)N)C(N)=O)NC(=O)[C@H](CO)NC1=O` [mini-ANP, reference compound] (HELM PEPTIDE1{M.C.H.F.G.G.R.M.D.R.I.S.C.Y.R.[am]}$PEPTIDE1,PEPTIDE1,2:R3-13:R3$$$V2.0), on NPR-B (GTM-3 cells, 4-Parameter Logistic Equation, highest concentration 45 μM, FIG. 2, read-out: EC50, cyclic GMP production in GTM-3 cells), the EC50 was over 45 µM. For `CCCCCCCCN1CCC[C@H](C(=O)N[C@@H](Cc2ccccc2)C(=O)N[C@H](CN(C)C)C(=O)N[C@@H](CC(C)C)C(=O)N2C[C@H](O)C[C@H]2C(=O)N(C)[C@@H](CC(C)C)C(=O)N[C@@H](CC(=O)O)C(=O)N[C@@H](CCCNC(=N)N)C(=O)N[C@H](C(N)=O)[C@@H](C)CC)C1` [JAL-1429, Oct-Sni-Phe-dap(Me2)-Leu-Hyp-Nml-Asp-Arg-Ile-NH2] (HELM PEPTIDE1{[CCCCCCCCN1CCC[C@H](C(=O)[*:2])C1].F.[CN(C)C[C@@H](N[*:1])C(=O)[*:2]].L.[Hyp].[meL].D.R.I.[am]}$$$$V2.0), the EC50 at NPR-B (setting [3]) is under 1 µM.

Regarding `CCCCCCCCN1CCC[C@H](C(=O)N[C@@H](Cc2ccccc2)C(=O)N[C@H](CN(C)C)C(=O)N[C@@H](CC(C)C)C(=O)N2C[C@H](N)C[C@H]2C(=O)N(C)[C@@H](CC(C)C)C(=O)N[C@@H](CC(=O)O)C(=O)N[C@@H](CCCNC(=N)N)C(=O)N[C@H](C(N)=O)[C@@H](C)CC)C1` [JAL-1369, Oct-Sni-Phe-dap(Me2)-Leu-Tap-Nml-Asp-Arg-Ile-NH2] (X1-F[dDap(Me2)]L[Pro(4R-NH2)][NMeL]DRI-NH2), on NPR-B (setting [3]), the EC50 is under 1 µM. Turning to `CCCCCCCC(=O)N1CCC[C@H](C(=O)N(C)[C@@H](Cc2ccccc2)C(=O)N[C@H](CN(C)C)C(=O)N[C@@H](CC(C)C)C(=O)N2C[C@H](O)C[C@H]2C(=O)N(C)[C@@H](CC(C)C)C(=O)N[C@@H](CC(=O)O)C(=O)N[C@@H](CCCNC(=N)N)C(=O)N[C@H](C(N)=O)[C@@H](C)CC)C1` [JAL-1579, Occ-Sni-Nmf-dap(Me2)-Leu-Hyp-Nml-Asp-Arg-Ile-NH2] (Octanoyl-[X2][NMeF][dDap(Me2)]L[Hyp][NMeL]DRI-NH2), the EC50 on NPR-B (setting [3]) was under 1 µM. `CCCCCCCC(=O)N1CCC[C@H](C(=O)N[C@@H](Cc2ccccc2)C(=O)N[C@H](CN(C)C)C(=O)N[C@@H](CC(C)C)C(=O)N2C[C@H](O)C[C@H]2C(=O)N(C)[C@@H](CC(C)C)C(=O)N[C@@H](CC(=O)O)C(=O)N(C)[C@@H](CCCNC(=N)N)C(=O)N[C@H](C(N)=O)[C@@H](C)CC)C1` [JAL-1576, Occ-Sni-Phe-dap(Me2)-Leu-Hyp-Nml-Asp-Nmr-Ile-NH2] (Octanoyl-[X2]F[dDap(Me2)]L[Hyp][NMeL]D[NMeR]I-NH2): the EC50 at NPR-B (setting [3]) was under 1 µM. Take `CC[C@H](C)[C@@H]1NC(=O)[C@H](CCCNC(=N)N)NC(=O)[C@H](CC(=O)O)NC(=O)[C@H](CC(C)C)NC(=O)[C@H](CCCCN)NC(=O)[C@H](CC(C)C)NC(=O)CNC(=O)[C@H](Cc2ccccc2)NC(=O)[C@@H](NC(=O)CNC(=O)[C@H](CCCCN)NC(=O)[C@H](CO)NC(=O)[C@H](CC(C)C)NC(=O)CN)CSSC[C@@H](C(=O)O)NC(=O)CNC(=O)[C@H](CC(C)C)NC(=O)CNC(=O)[C@H](CO)NC(=O)[C@H](CCSC)NC(=O)[C@H](CO)NC(=O)CNC1=O` [CNP, C-type natriuretic peptide]: in assay [2], the “decrease in cell number” value is 10%. For the same compound, the “increase in cellularity (chondrocyte proliferation)” value in the assay with chondrocytes is recorded as “up to 43%”.
